# In patent US10995363B2, “Nucleotide analogs” (ABBOTT MOLECULAR INC., priority 2013, dated 2021):
# B1: 9° N: 9∘N DNA Polymerase (NEB) (protein, UniProt Q56366 1-775, looked up)
# DNA polymerase: MILDTDYITENGKPVIRVFKKENGEFKIEYDRTFEPYFYALLKDDSAIEDVKKVTAKRHGTVVKVKRAEKVQKKFLGRPIEVWKLYFNHPQDVPAIRDRIRAHPAVVDIYEYDIPFAKRYLIDKGLIPMEGDEELTMLAFDIETLYHEGEEFGTGPILMISYADGSEARVITWKKIDLPYVDVVSTEKEMIKRFLRVVREKDPDVLITYNGDNFDFAYLKKRCEELGIKFTLGRDGSEPKIQRMGDRFAVEVKGRIHFDLYPVIRRTINLPTYTLEAVYEAVFGKPKEKVYAEEIAQAWESGEGLERVARYSMEDAKVTYELGREFFPMEAQLSRLIGQSLWDVSRSSTGNLVEWFLLRKAYKRNELAPNKPDERELARRRGGYAGGYVKEPERGLWDNIVYLDFRSLYPSIIITHNVSPDTLNREGCKEYDVAPEVGHKFCKDFPGFIPSLLGDLLEERQKIKRKMKATVDPLEKKLLDYRQRAIKILANSFYGYYGYAKARWYCKECAESVTAWGREYIEMVIRELEEKFGFKVLYADTDGLHATIPGADAETVKKKAKEFLKYINPKLPGLLELEYEGFYVRGFFVTKKKYAVIDEEGKITTRGLEIVRRDWSEIAKETQARVLEAILKHGDVEEAVRIVKEVTEKLSKYEVPPEKLVIHEQITRDLRDYKATGPHVAVAKRLAARGVKIRPGTVISYIVLKGSGRIGDRAIPADEFDPTKHRYDAEYYIENQVLPAVERILKAFGYRKEDLRYQKTKQVGLGAWLKVKGKK
# B2: rTth: rTth DNA polymerase (protein, UniProt P52028 1-834, looked up)
# DNA polymerase I, thermostable: MEAMLPLFEPKGRVLLVDGHHLAYRTFFALKGLTTSRGEPVQAVYGFAKSLLKALKEDGYKAVFVVFDAKAPSFRHEAYEAYKAGRAPTPEDFPRQLALIKELVDLLGFTRLEVPGYEADDVLATLAKKAEKEGYEVRILTADRDLYQLVSDRVAVLHPEGHLITPEWLWEKYGLRPEQWVDFRALVGDPSDNLPGVKGIGEKTALKLLKEWGSLENLLKNLDRVKPENVREKIKAHLEDLRLSLELSRVRTDLPLEVDLAQGREPDREGLRAFLERLEFGSLLHEFGLLEAPAPLEEAPWPPPEGAFVGFVLSRPEPMWAELKALAACRDGRVHRAADPLAGLKDLKEVRGLLAKDLAVLASREGLDLVPGDDPMLLAYLLDPSNTTPEGVARRYGGEWTEDAAHRALLSERLHRNLLKRLEGEEKLLWLYHEVEKPLSRVLAHMEATGVRLDVAYLQALSLELAEEIRRLEEEVFRLAGHPFNLNSRDQLERVLFDELRLPALGKTQKTGKRSTSAAVLEALREAHPIVEKILQHRELTKLKNTYVDPLPSLVHPRTGRLHTRFNQTATATGRLSSSDPNLQNIPVRTPLGQRIRRAFVAEAGWALVALDYSQIELRVLAHLSGDENLIRVFQEGKDIHTQTASWMFGVPPEAVDPLMRRAAKTVNFGVLYGMSAHRLSQELAIPYEEAVAFIERYFQSFPKVRAWIEKTLEEGRKRGYVETLFGRRRYVPDLNARVKSVREAAERMAFNMPVQGTAADLMKLAMVKLFPRLREMGARMLLQVHDELLLEAPQARAEEVAALAKEAMEKAYPLAVPLEVEVGMGEDWLSAKG
# Columns and labels:
# [1] = biological target: T1, Therminator II DNA polymerase (Thermococcus sp., UniProt Q56366, A485L/D141A/E143A/Y409V); assay: Polymerase extension assay: incorporation of 3′-O-propargyl-dNTP at the 3′ end of a primer on KRAS template; type: biochemical, Thermococcus sp. 9∘N; details: 2 mM MnCl2, KRAS template, 35 cycles, size analysis by gel electrophoresis
# T1 construct: purchased New England BioLabs
# T1 sequence (Q56366 whole entry D141A/E143A/Y409V/A485L): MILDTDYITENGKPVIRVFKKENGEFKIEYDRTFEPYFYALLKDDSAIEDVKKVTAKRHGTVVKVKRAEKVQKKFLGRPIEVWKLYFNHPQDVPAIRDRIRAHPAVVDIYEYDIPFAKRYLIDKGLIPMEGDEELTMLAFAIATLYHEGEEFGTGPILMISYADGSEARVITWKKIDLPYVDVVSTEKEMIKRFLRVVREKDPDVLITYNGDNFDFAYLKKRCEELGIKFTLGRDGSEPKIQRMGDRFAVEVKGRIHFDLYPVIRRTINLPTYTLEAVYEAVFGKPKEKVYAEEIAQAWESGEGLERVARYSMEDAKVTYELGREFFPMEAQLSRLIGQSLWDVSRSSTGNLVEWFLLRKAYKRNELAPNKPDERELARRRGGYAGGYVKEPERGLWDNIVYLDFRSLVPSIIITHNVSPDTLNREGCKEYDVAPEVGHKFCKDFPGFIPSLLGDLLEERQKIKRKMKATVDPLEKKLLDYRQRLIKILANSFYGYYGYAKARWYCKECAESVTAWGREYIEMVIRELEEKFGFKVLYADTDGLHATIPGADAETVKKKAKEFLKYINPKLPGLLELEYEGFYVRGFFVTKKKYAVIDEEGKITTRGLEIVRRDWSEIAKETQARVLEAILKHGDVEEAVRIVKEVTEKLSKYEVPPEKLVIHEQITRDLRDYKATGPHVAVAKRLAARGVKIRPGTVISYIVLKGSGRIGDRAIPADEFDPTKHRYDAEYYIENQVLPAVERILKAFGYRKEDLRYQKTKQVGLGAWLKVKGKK
# Description: During the development of embodiments of the technology provided herein, experiments were conducted to assess the incorporation of 3′-O-propargyl-dNTPs into a nucleic acid by a polymerase. In particular, experiments were conducted to evaluate the accurate incorporation of 3′-O-propargyl-dNTPs into a nucleic acid and to evaluate the terminating activity of the 3′-O-propargyl-dNTPs. To assess these characteristics of the nucleotide analogs provided herein, polymerase extension assays were conducted using a template nucleic acid having a sequence from human KRAS (e.g., KRAS exon 2 and flanking intron sequences) and a complementary primer (Table 2).
# To test incorporation of a 3′-O-propargyl-dTTP into a nucleic acid, a polymerase extension reaction mix was assembled comprising 20 mM Tris-HCl, 10 mM (NH4)SO4, 10 mM KCl, 2 mM MnCl2, 0.1% Triton X-100, 200 μmol 3′-O-propargyl-dTTP, 6.25 μmol of primer R_ke2_trP1_T_bio (SEQ ID NO: 2), and 2 units of Therminator II DNA polymerase (New England BioLabs) in a 25-μl final reaction volume. A volume of 0.5 μmol of the KRAS template (SEQ ID NO: 1) was used as template (Table 2). The polymerase extension reaction was performed using a temperature cycling profile comprising exposing the reaction to a temperature of 95° C. for 2 minutes followed by 35 cycles of 95° C. for 15 seconds, 55° C. for 25 seconds, and 65° C. for 35 seconds.
# (§1) After the polymerase extension reaction, 1 μl of the reaction mix was used directly for nucleic acid size analysis by gel electrophoresis (e.g., using an Agilent 2100 Bioanalyzer and High Sensitivity DNA Assay Chip).
# Additional polymerase extension experiments were performed using the reaction conditions described above and replacing the 3′-O-propargyl-dTTP and the primer R_ke2_trP1_T_bio with 3′-O-propargyl-dATP and the primer R_ke2_trP1_A bio (SEQ ID NO: 3); 3′-O-propargyl-dCTP and the primer R_ke2_trP1_C bio (SEQ ID NO: 5); and 3′-O-propargyl dGTP and the primer R_ke2_trP1_G bio (SEQ ID NO: 4).
# [2] = biological target: T1, Therminator II DNA polymerase; assay: Ladder fragment generation with natural dNTPs and one 3′-O-propargyl-dNTP; type: biochemical, Thermococcus sp. 9∘N; details: natural dNTPs plus one 3′-O-propargyl-dNTP, KRAS template, 50 cycles
# Description: During the development of embodiments of the technology provided herein, experiments were conducted to assess using the nucleotide analogs of the present technology to generate nucleic acid fragments that terminate at base-specific positions. In particular, reaction mixtures were produced and tested that included both natural dNTPs and each of the 3′-O-propargyl-dNTPs individually.
# To test the fragment generation by 3′-O-propargyl-dTTP, a DNA fragment generation reaction mix was prepared comprising 20 mM Tris-HCl, 10 mM (NH4)SO4, 10 mM KCl, 2 mM MnCl2, 0.1% Triton X-100, 1000 μmol dATP, 1000 μmol dCTP, 1000 μmol dGTP, 1000 μmol dTTP, 200 μmol 3′-O-propargyl-dTTP, 6.25 μmol of primer R_ke2_trP1_T_bio (SEQ ID NO: 2), and 2 units of THERMINATOR II DNA polymerase (New England BioLabs) in a 25-μl final reaction volume. A volume of 0.5 μmol of the KRAS template (SEQ ID NO: 1) was used as template. The polymerase extension reaction was performed using a temperature cycling profile comprising exposing the reaction to a temperature of 95° C. for 2 minutes followed by 50 cycles of 95° C. for 15 seconds, 55° C. for 25 seconds, and 65° C. for 35 seconds.
# as §1
# Additional polymerase extension experiments were performed using the reaction conditions described above and replacing the 3′-O-propargyl-dTTP with 3′-O-propargyl-dATP, 3′-O-propargyl-dCTP, or 3′-O-propargyl dGTP.
# [3] = tested on: 3′-O-propargyl-dNTP; assay: Polymerase screening by nucleotide extension assay (incorporation of 3′-O-propargyl-dNTP as substrate); type: biochemical; parameters: key: a minus (“−”) indicates that the polymerase did not produce a detectable product incorporating the 3′-O-propargyl dNTP; a single plus (“+”) indicates that the polymerase produced a detectable product incorporating the 3′-O-propargyl dNTP; three plusses (“+++”) indicates that the polymerase produced a substantial amount of 3′-O-propargyl dNTP incorporation product
# Source text: For example, in some exemplary assays and/or embodiments, compatible polymerases are identified by a polymerase extension reaction (e.g., a single base extension reaction). See, e.g., Ausebel et al. (eds.), Current Protocols in Molecular Biology. New York: John Wiley & Sons, Inc; Sambrook et al. (1989). Molecular Cloning: A Laboratory Manual. (2nd ed.). Cold Spring Harbor: Cold Spring Harbor Laboratory Press.
# For example, identifying compatible polymerases comprises providing a polymerase to test and a reaction buffer appropriate for the polymerase. For polymerases obtained from a commercial supplier (e.g., New England BioLabs, United States Biologicals, Promega, Invitrogen, Worthington, Sigma-Aldrich, Fluka, Finnzymes, Roche, 5 Prime, Qiagen, KAPA Biosystems, Thermo Scientific, Agilent, Life Technologies, etc.), the polymerase is often supplied with an appropriate reaction buffer. An exemplary reaction buffer comprises, e.g., a compatible buffer (e.g., 20 mM Tris-HCl), a salt (e.g., 10 mM KCl), a source of magnesium or manganese (e.g., 2 mM MgSO4; 2 mM MnCl2, etc.), a detergent (e.g., 0.1% TRITON X-100) and has a suitable pH (e.g., approximately pH 8.8 at approximately 25° C.). The activities of some polymerases are improved in the presence of other compounds, such as sulfate and other salts (e.g., 10 mM (NH4)2SO4). Reaction mixtures for polymerase extension reactions are typically tested using Mg^2+ or Mn^2+ as the enzyme cofactor.
# Polymerases are tested by providing in the reaction mixture a DNA template, a DNA primer that is complementary to the DNA template, and one or more nucleotides and/or nucleotide analogs. Typical concentrations of template and primer are approximately from 1 to 100 nM and typical concentrations of nucleotides and/or nucleotide analogs are approximately from 1 to 125 μM (e.g., 1 to 125 μM for each nucleotide and/or nucleotide analog and/or 1 to 500 μM total concentration of all nucleotides and/or nucleotide analogs). Templates and primers are synthesized by methods known in the art (e.g., using solid supports and phosphoramidite chemistry) and are available from several commercial suppliers (e.g., Integrated DNA Technologies, Coralville, Iowa).
# A pre-annealed primer/template is typically produced for testing polymerases. For example, the primer is typically resuspended in a suitable buffer (e.g., Tris-EDTA, pH 8.0) at a suitable concentration, e.g., at 1 to 500 μM (e.g., at 100 μM) and the template is typically resuspended in a suitable buffer (e.g., Tris-EDTA, pH 8.0) at a suitable concentration, e.g., at 1 to 500 μM (e.g., at 100 μM). […] For example, a pre-annealed primer/template is produced by mixing approximately 100 μl of the approximately 1 to 500 μM (e.g., at 100 μM) primer solution to approximately 100 μl of the approximately 1 to 500 μM (e.g., at 100 μM) template solution in approximately 800 μl of an annealing buffer (e.g., 200 mM Tris, 100 mM potassium chloride, and 0.1 mM EDTA, pH 8.45) to provide a milliliter of primer/template solution. One of skill in the art can scale the volumes and concentrations as appropriate for the concentrations and volumes that are appropriate for the particular analysis. Then, an aliquot (e.g., 100 μl) of the primer/template solution is heated to denature intramolecular and/or intermolecular secondary structures (e.g., by heating at approximately 85° C. to 97° C. (e.g., at approximately 95° C.), e.g., for 1 to 5 minutes (e.g., 2 minutes). Next, the aliquot is cooled to an annealing temperature (e.g., 20° C. to 60° C. (e.g., 25° C.) and incubated for 1 to 10 minutes (e.g., for approximately 5 minutes) to allow the primer and template to anneal to form a primer/template. The primer/template can be diluted in an appropriate substrate dilution buffer (e.g., 20 mM Tris, 10 mM potassium chloride, and 0.01 mM EDTA, pH 8.45; e.g., a 1 to 10 dilution of the annealing buffer described above) for storage. […]
Molecule,incorporation at the 3′ end of the primer [1],generation of nucleic acid fragments terminated at base-specific positions [2],product incorporating the 3′-O-propargyl dNTP ([3]; co-factor Mg^2+),product incorporating the 3′-O-propargyl dNTP ([3]; co-factor Mn^2+)
"C#CCO[C@H]1C[C@H](n2ccc(N)nc2=O)O[C@@H]1COP(=O)(O)OP(=O)(O)OP(=O)(O)O [3′-O-propargyl-dCTP, 3′-O-propargyl-2′-deoxycytidine-5′-triphosphate]",successful incorporation,generated populations of nucleic acid fragments having a range of sizes corresponding to the expected lengths,,
"C#CCO[C@H]1C[C@H](n2cnc3c(=O)[nH]c(N)nc32)O[C@@H]1COP(=O)(O)OP(=O)(O)OP(=O)(O)O [3′-O-propargyl-dGTP, 3′-O-propargyl-2′-deoxyguanosine-5′-triphosphate]",successful incorporation,generated populations of nucleic acid fragments having a range of sizes corresponding to the expected lengths,,
Amplitaq Gold: polymerase enzyme sold under the trade name Ampli-Taq (Life Technologies),,,−,−
"C#CCO[C@H]1C[C@H](n2cnc3c(N)ncnc32)O[C@@H]1COP(=O)(O)OP(=O)(O)OP(=O)(O)O [3′-O-propargyl-dATP, 3′-O-propargyl-2′-deoxyadenosine-5′-triphosphate]",successful incorporation,generated populations of nucleic acid fragments having a range of sizes corresponding to the expected lengths,,
B1,,,−,+
B2,,,−,−
